In assay [1] the test system is NAD^+. Description: NAD+ and NADH concentrations and NAD+/NADH ratio in skin tissue, cyclophosphamide alopecia model. The class given is in vivo, mice. Particulars: cyclophosphamide plus dunnione vs cyclophosphamide. How it is done:
Specifically, in order to quantify the NAD^+ and NADH concentrations in the skin tissue obtained from the animal model prepared by the method in Example 2, the skin tissue was tested with the analysis kit (E2ND-100) of BioAssay Systems according to the instruction manual, and then the NAD^+/NADH ratio was analyzed. First, 10 mg of skin tissue was collected from the animal model. Then, 100 μl of extraction solution for NAD^+ or NADH was added to the skin tissue and homogenized. Then, the homogenized skin tissue was subjected to heat treatment at 60° C. for 5 minutes. Neutralization was performed by addition of the same volume of the extraction solution, and then centrifugation was performed at 14,000 rpm for 5 minutes to obtain the supernatant. Then, a developing reagent was added to the supernatant. The NAD^+ and NADH concentrations were determined from the absorbance measured at a wavelength of 565 nm, and the NAD^+/NADH ratio was analyzed.

In assay [2] the test system is NQO1 knockout mice. On the procedure:
(§1) The day, on which the NQO1 knockout mice were hair-removed according to Example 1, was set as day 0, and the animals were divided into the following experimental groups and used for experiments: normal group (Control, 4 animals) in which only PBS is intraperitoneally injected on day 9; cyclophosphamide group (CYP, 6 animals) in which cyclophosphamide (150 mg/kg) is intraperitoneally injected on day 9; combination-treated group (CYP+Dunnione, 6 animals) in which dunnione is orally administered on a daily basis starting from 3 days prior to treatment with cyclophosphamide; and dunnione alone-treated group (Dunnione, 4 animals) in which only dunnione (20 mg/kg) is administered (FIG. 1).

Assay [3] has as its system NQO1 knockout mice. As to the kind of experiment: Visual observation of skin in NQO1 knockout mice treated with 6×TAC. It counts as in vivo.
Excerpt: In order to identify whether a hair loss inhibitory effect of dunnione in an animal model having combined chemotherapy-induced alopecia is dependent on the enzyme NQO1, the same experiments as described in Examples 1 and 2 were repeatedly performed using NQO1 knockout mice in place of the C57BL/6 mice.
Assay [4] concerns the target NAD(P)H: quinone oxidoreductase 1 (NQO1) (Homo sapiens, UniProt P15559). The settings on record: reported to date (Pandit et al. 2015; Shen et al. 2017); cited from earlier work.
The test system of assay [5] is C57BL/6 mice having alopecia caused by cyclophosphamide. How it is done: as §1, with “the” for “the NQO1 knockout”, “in” for “according to”, “groups:” for “experimental groups and used for experiments:”
The day, on which the mice were hair-removed in Example 1, was set as day 0, and the mice in each of the experimental groups described in Example 2 were sacrificed on day 18. Subsequently, the mouse dorsal skin was dissected parallel or perpendicular to the vertebral line, and removed. The removed skin was fixed with a Bouin's solution for 12 hours, subjected to dehydration, and embedded in paraffin. Then, the resulting product was prepared into 5-μm sections. The prepared sections were subjected to hematoxylin and eosin (H&E) staining, and histological changes in the skin in each experimental group were observed.

Assay [6] has the same test system. As to the kind of experiment: Visual observation of skin in animal model having alopecia caused by cyclophosphamide. The class given is in vivo. The text has this: In 9-week-old C57BL/6 mice, the hair on the dorsal skin area was first removed with an animal hair clipper, and then a depilatory ([…] cream, manufactured by Ildong Pharmaceutical Co., Ltd.) was applied to the dorsal skin to completely remove the hair.

The mark [7] stands for this setting: dunnione alone (20 mg/kg), day 18.

“Also recorded” adds a separate entry of the source. Like-named read-outs stand apart in the source and are kept apart here.

We go through one compound from US11278514B2, “Composition compromising dunnione as effective ingredient for prevention or alleviation of hair loss” (NADIANBIO LTD., priority 2018, dated 2022).

NAD(P)H: quinone oxidoreductase 1 (NQO1), sequence (P15559 whole entry, species assumed): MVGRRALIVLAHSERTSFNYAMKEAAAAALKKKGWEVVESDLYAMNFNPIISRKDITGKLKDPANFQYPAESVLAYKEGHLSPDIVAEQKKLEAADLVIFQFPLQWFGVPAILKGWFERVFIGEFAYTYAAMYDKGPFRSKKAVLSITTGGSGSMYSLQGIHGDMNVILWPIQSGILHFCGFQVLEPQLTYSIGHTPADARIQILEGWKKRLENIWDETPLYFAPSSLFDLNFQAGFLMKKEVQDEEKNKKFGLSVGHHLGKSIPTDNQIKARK

`CC1OC2=C(C(=O)C(=O)c3ccccc32)C1(C)C` (stereo not drawn) [dunnione, 2,3-dihydro-2,3,3-trimethyl-naphtho[1,2-b]furan-4,5-dione]: in assay [1] (day 18), the “NAD^+/NADH ratio in skin tissue” value is recorded as “increases”. In addition, in assay [1] (day 18 after hair removal), the “NAD^+ concentration in skin tissue” value was “increases”. In addition, the “hair growth, visual observation of skin” value in assay [2] (CYP+Dun combination-treated group, until day 18) was “hair hardly grew until day 18 after hair removal; also recorded: progression of hair loss to a level similar to the cyclophosphamide alone-treated group”; in assay [2] (setting [7]), “hair grew overall on day 18 so that the skin is full of hair and looks black”; in assay [3] (6×TAC+Dunnione combination-treated group, until day 18) it was “hair hardly grows until day 18 after hair removal; also recorded: progression of hair loss to a level similar to the TAC alone-treated group”; in assay [3] (setting [7]), “hair grew overall on day 18 so that the skin is full of hair and looks black”; in assay [6] (CYP+Dunnione combination-treated group, day 18 after hair removal), “hair grew overall so that the skin is full of hair and looks black”; in assay [6] (CYP+Dunnione: cyclophosphamide 150 mg/kg i.p. day 9, dunnione oral daily from 3 days prior, day 14 after hair removal), “began to grow more hair than the cyclophosphamide alone-treated group”. For the same compound, the “hair growth, visual observation of skin” value in assay [6] (dunnione alone (20 mg/kg), day 18 after hair removal) was “hair grew overall so that the skin is full of hair and looks black”. In addition, the “start of hair growth, visual observation of skin” value in assay [2] (dunnione alone (20 mg/kg)) and in assay [3] (dunnione alone (20 mg/kg)) was “hair began to grow starting from day 12 after hair removal” in each case. Further, the “activity of the enzyme NQO1” value in assay [4] is “increases”. The “development of hair follicles and inner root sheaths (histology)” value in assay [5] (CYP+Dun combination-treated group, day 18 after hair removal) was “suppressed falling-off of hair follicles and inner root sheaths; also recorded: the hair follicles and the inner root sheaths have well developed overall”. Besides, in assay [5] (CYP+Dun compared with cyclophosphamide alone-treated group, day 18), the “number of growing hairs (histology)” value is recorded as “increased number of hairs”. For the same compound, the hair loss result in assay [6] (cyclophosphamide plus dunnione combination-treated group compared with cyclophosphamide alone-treated group) is recorded as “inhibited hair loss”.
